Results taken from patent US20110184147A1, “ENZYME SUBSTRATE FOR LABELING OF PROTEIN” (priority 2008, published 2011).

Key:
GTG = target: T1, GTG (UniProt P08587); experiment: Reactivity of GTG for fluorescent substrate (crosslinking with β-casein); type: biochemical, guinea pig; conditions: substrate 1 mM, β-casein 0.5 mg/ml, GTG 0.2 U/ml, 50 mM HEPES pH 7.4, overnight 27° C.
T1 construct: purchased
T1 sequence (P08587 1-690): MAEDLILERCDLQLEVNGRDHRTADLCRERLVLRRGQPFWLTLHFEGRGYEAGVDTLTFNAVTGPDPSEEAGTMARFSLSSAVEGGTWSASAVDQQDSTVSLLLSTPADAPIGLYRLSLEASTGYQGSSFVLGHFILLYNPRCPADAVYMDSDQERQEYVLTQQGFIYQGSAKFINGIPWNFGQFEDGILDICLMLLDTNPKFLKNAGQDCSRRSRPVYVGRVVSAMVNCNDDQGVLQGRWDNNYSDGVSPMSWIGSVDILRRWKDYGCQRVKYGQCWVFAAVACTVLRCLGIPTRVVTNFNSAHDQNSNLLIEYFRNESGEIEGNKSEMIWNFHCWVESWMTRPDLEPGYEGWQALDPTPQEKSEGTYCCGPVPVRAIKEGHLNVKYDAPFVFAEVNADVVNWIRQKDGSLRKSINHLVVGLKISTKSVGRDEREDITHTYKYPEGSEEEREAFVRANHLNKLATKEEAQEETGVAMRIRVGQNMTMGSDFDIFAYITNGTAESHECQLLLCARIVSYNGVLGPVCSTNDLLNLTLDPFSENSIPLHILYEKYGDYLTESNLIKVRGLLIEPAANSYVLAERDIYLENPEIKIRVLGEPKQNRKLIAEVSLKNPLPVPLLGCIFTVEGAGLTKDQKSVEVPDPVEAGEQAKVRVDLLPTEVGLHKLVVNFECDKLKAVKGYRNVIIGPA
Description: In the experiment, β-casein was used as a protein having a TGase-recognizable Lys and a reaction for crosslinking with a fluorescent substrate was performed to evaluate its reactivity for GTG.
To perform a binding reaction, FITC-β-Ala-QG, β-casein and GTG were added to 50 mM HEPES (5 mM NaCl, 10 mM CaCl2, pH 7.4) to give respective final concentrations of 1 mM, 0.5 mg/ml and 0.2 U/ml and the resulting mixture was left to stand overnight at 27° C. Two comparative samples were prepared; one was a GTG-free sample and the other was prepared by performing an MTG-catalyzed reaction. For the MTG-catalyzed binding reaction, FITC-β-Ala-QG, β-casein and MTG were added to a 10 mM phosphate buffer (pH 7) to give respective final concentrations of 1 mM, 0.5 mg/ml and 1 U/ml and the resulting mixture was left to stand overnight at 27° C. Tracing on the sample after the reaction was performed by the same procedure as in Experiment 2-2.

BSA (antigen) = experiment: Antigen recognizing ability by ELISA (rabbit-derived anti-BSA IgG antibody); type: binding; conditions: rabbit-derived anti-BSA IgG antibody (polyclonal) modified by MTG
Description: A study was made on samples that were prepared by introducing a fluorescent substrate (FITC-ε-Acp-QG or FITC-β-Ala-QG) into a rabbit-derived anti-BSA IgG antibody (polyclonal) under the same conditions as in Experiment 2-2.
ELISA was performed by the following procedure (FIG. 3-5). • 1) To a Black Plate, 5 mg/ml of BSA (antigen) was added in an amount of 150 µl/well and left to stand overnight at 37° C. • 2) The product of 1) was washed with PBST five times. • 3) Modified anti-BSA IgG antibodies were added in an amount of 60 µl/well and left to stand at room temperature for 5 hours. • 4) The product of 3) was washed with PBST five times. • 5) Examination was made with a fluorescent imager. • 6) A […] sample of AP-labeled anti-rabbit IgG IgG antibodies were added in an amount of 150 µl/well and left to stand at 37° C. for 3 hours. • 7) The product of 6) was washed with TBST five times. • 8) The substrate was added and 10 minutes later, fluorescence derived from the enzymatic reaction was examined with a fluorescent imager.

MTG = target: T2, MTG (Streptomyces mobaraensis, UniProt P81453); experiment: MTG-catalyzed introduction of fluorescent substrate into anti-PSA IgG antibody (optimization, substrate comparison); type: biochemical, microbial
T2 construct: purchased AJINOMOTO (supplied as a gift)
Description: To a 50 mM buffer whose pH was varied over the range from 5 to 9 (pH 5 acetate buffer; pH 6-7 phosphate buffer; pH 8 Tris-HCl; pH 9 boric acid buffer), FITC-β-Ala-QG, an anti-PSA (prostate specific antigen) IgG antibody (mouse-derived, monoclonal) and MTG were added to give respective final concentrations of 0.1 mM, 0.5 mg/ml, and 1 U/ml. These ingredients were well stirred and left to stand at 4° C. for reaction. After 1-hr or 6-hr reaction, the sample was mixed with a sample buffer and heated at 95° C. for 15 minutes to stop the reaction. Thereafter, SDS-polyacrylamide gel electrophoresis (SDS-PAGE) was applied. The gel from SDS-PAGE was stained with Coomassie Brilliant Blue (CBB) and observed with a fluorescent imager.
(§1) To 50 mM Tris-HCl (pH 8), FITC-β-Ala-QG, an anti-PSA IgG antibody and MTG were added to give respective final concentrations of 1 mM, 0.5 mg/ml, and 0.001-1 U/ml. These ingredients were well stirred and left to stand at 4° C. for reaction. The reaction was stopped and evaluation was made by the same procedures as in Experiment 2-1.
as §1, with “of 0.001-1” for “of 1”, “and 1” for “and 0.001-1”
To PBS, FITC-β-Ala-QG, an anti-PSA IgG antibody (mouse-derived, monoclonal) and MTG were added to give respective final concentrations of 1 mM, 0.5 mg/ml, and 1 U/ml. These ingredients were well stirred and left to stand at 4° C. or 40° C. for reaction. After 3-, 6- and 18-hr reactions, the reaction was stopped and evaluation was made by the same procedures as in Experiment 2-1.
To PBS, FITC-β-Ala-QG, an anti-PSA IgG antibody (mouse-derived, monoclonal) and MTG were added to give respective final concentrations of 1 mM, 0.5 mg/ml, and 1 U/ml. These ingredients were well stirred and left to stand for 18 hours at 4° C. for reaction. For the purpose of comparison, two additional samples were prepared, one being free of FITC-β-Ala-QG-biotin and the other having been reacted with a biotin-free fluorescent substrate (FITC-β-Ala-QG). After the reaction, the samples were purified by ultrafiltration (product of MILLIPORE Corp.; 100 kDa cut).

T2 sequence (P81453 77-407): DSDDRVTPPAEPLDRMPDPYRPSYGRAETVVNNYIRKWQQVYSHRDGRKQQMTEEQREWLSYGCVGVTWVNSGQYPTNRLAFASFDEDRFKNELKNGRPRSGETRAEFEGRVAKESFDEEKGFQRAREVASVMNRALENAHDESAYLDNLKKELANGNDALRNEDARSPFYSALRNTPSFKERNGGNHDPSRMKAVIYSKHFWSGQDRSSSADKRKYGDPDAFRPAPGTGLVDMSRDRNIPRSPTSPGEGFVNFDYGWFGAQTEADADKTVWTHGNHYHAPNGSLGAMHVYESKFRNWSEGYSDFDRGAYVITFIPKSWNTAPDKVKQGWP

## NC(=O)CCC(NC(=O)CCNC(=S)Nc1ccc(-c2c3ccc(=O)cc-3oc3cc(O)ccc23)c(C(=O)O)c1)C(=O)NCC(=O)O (stereo not drawn) [FITC-β-Ala-QG]
GTG
  Reactivity of fluorescent substrate for GTG: also recognized by MTG
BSA (antigen)
  Antigen recognizing ability of modified antibody: maintained its antigen recognizing ability
MTG; anti-PSA IgG antibody, substrate 0.1 mM, MTG 1 U/ml, 4° C., 1 and 6 hours
  pH of highly efficient introduction into antibody: ~7
MTG; anti-PSA IgG antibody, substrate 0.001-1 mM, MTG 1 U/ml, pH 8, 4° C.
  Substrate concentration dependency of antibody labeling: proceeded with the increasing substrate concentration
MTG; anti-PSA IgG antibody, substrate 1 mM, pH 8, 4° C., MTG 0.001-1 U/ml
  MTG concentration at which a highly efficient reaction proceeded: 1 U
MTG; before the addition of the resin (lanes 1-3)
  Introduction into the antibody: verified the introduction
